Reference: patent publication US20100298141A1, “SUBSTITUTED PYRIDINE N-OXIDE HERBICIDES” (E. I. DU PONT DE NEMOURS AND COMPANY, priority 2007, published 2010)

Tests used:
barnyardgrass [1] = test: Test C flooded paddy test; assay type: in vivo, Echinochloa crus-galli; conditions: Flood
In short: (§1)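 In-water treatment: compound dosed into 3 cm flood over soil, water level unchanged throughout. Controls run alongside; visual assessment at day 13–15.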

rice = test: Test C flooded paddy test; assay type: in vivo, Oryza sativa; conditions: Flood
In short: as §1

umbrella sedge = test: Test C flooded paddy test; assay type: in vivo, Cyperus difformis; conditions: Flood
In short: as §1

giant foxtail = test: Test A pre-/postemergence greenhouse test; assay type: in vivo, Setaria faberi; conditions: for Plant response rating, Foxtail, Giant: 0 to 100 scale where 0 is no effect and 100 is complete control; for Foxtail, Giant plant response rating: 0 to 100 scale
In short: (§2)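 Untreated controls served as the reference for visual injury ratings taken about ten days after spraying. The non-phytotoxic solvent/surfactant formulation was applied preemergence to seeded loam and sand and postemergence to plants two to ten cm high.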

crabgrass = test: Test A pre-/postemergence greenhouse test; assay type: in vivo, Digitaria sanguinalis; conditions: for Plant response rating, Crabgrass, Large: 0 to 100 scale where 0 is no effect and 100 is complete control; for Crabgrass, Large plant response rating: 0 to 100 scale
In short: as §2

wheat = test: Test A pre-/postemergence greenhouse test; assay type: in vivo, Triticum aestivum; conditions: for Plant response rating, Wheat: 0 to 100 scale where 0 is no effect and 100 is complete control; for Wheat plant response rating: 0 to 100 scale
In short: as §2

morningglory = test: Test A pre-/postemergence greenhouse test; assay type: in vivo, Ipomoea spp.; conditions: for Plant response rating, Morningglory: 0 to 100 scale where 0 is no effect and 100 is complete control; for Morningglory plant response rating: 0 to 100 scale
In short: as §2

redroot pigweed = test: Test A pre-/postemergence greenhouse test; assay type: in vivo, Amaranthus retroflexus; conditions: for Plant response rating, Pigweed: 0 to 100 scale where 0 is no effect and 100 is complete control; for Pigweed plant response rating: 0 to 100 scale
In short: as §2

barnyardgrass [2] = test: Test A pre-/postemergence greenhouse test; assay type: in vivo, Echinochloa crus-galli; conditions: for Plant response rating, Barnyardgrass: 0 to 100 scale where 0 is no effect and 100 is complete control; for Barnyardgrass plant response rating: 0 to 100 scale
In short: as §2

corn = test: Test A pre-/postemergence greenhouse test; assay type: in vivo, Zea mays; conditions: for Plant response rating, Corn: 0 to 100 scale where 0 is no effect and 100 is complete control; for Corn plant response rating: 0 to 100 scale
In short: as §2

velvetleaf = test: Test A pre-/postemergence greenhouse test; assay type: in vivo, Abutilon theophrasti; conditions: for Plant response rating, Velvetleaf: 0 to 100 scale where 0 is no effect and 100 is complete control; for Velvetleaf plant response rating: 0 to 100 scale
In short: as §2

duck salad = test: Test C flooded paddy test; assay type: in vivo, Heteranthera limosa; conditions: Flood
In short: as §1

[3] = 62 g ai/ha, scale 0 to 100, 0 no effect, 100 complete control, 13 to 15 days
[4] = 250 g ai/ha, scale 0 to 100, 0 no effect, 100 complete control, 13 to 15 days
[5] = Postemergence, 500 g ai/ha, 0 is no effect, 100 is complete control
[6] = Preemergence, 125 g ai/ha, 0 no effect, 100 complete control
[7] = 62 g ai/ha, scale 0 to 100 (0 no effect, 100 complete control)

Structure (SMILES) | Plant response rating, Barnyardgrass (barnyardgrass [1]; [4]) | Plant response rating, Rice (rice; [4]) | Plant response rating, Sedge, Umbrella (umbrella sedge; [4]) | Plant response rating, Foxtail, Giant (giant foxtail; Postemergence, 125 g ai/ha) | Foxtail, Giant plant response rating (giant foxtail; [5]) | Foxtail, Giant plant response rating (giant foxtail; [6]) | Plant response rating, Foxtail, Giant (giant foxtail; Preemergence, 500 g ai/ha) | Plant response rating, Crabgrass, Large (crabgrass; Postemergence, 125 g ai/ha) | Crabgrass, Large plant response rating (crabgrass; [5]) | Crabgrass, Large plant response rating (crabgrass; [6]) | Plant response rating, Crabgrass, Large (crabgrass; Preemergence, 500 g ai/ha) | Plant response rating, Wheat (wheat; Postemergence, 125 g ai/ha) | Wheat plant response rating (wheat; [5]) | Wheat plant response rating (wheat; [6]) | Plant response rating, Wheat (wheat; Preemergence, 500 g ai/ha) | Plant response rating, Morningglory (morningglory; Postemergence, 125 g ai/ha) | Morningglory plant response rating (morningglory; [5]) | Morningglory plant response rating (morningglory; [6]) | Plant response rating, Morningglory (morningglory; Preemergence, 500 g ai/ha) | Plant response rating, Pigweed (redroot pigweed; Postemergence, 125 g ai/ha) | other results
Cn1nc(C(F)(F)F)c(C[S+]([O-])c2cc(Cl)cc[n+]2[O-])c1OC(F)F (stereo not drawn) [Compound 57] | 20 | 65 | 100 | 30 | 60 | 30 | 100 | 60 | 90 | 60 | 80 | 50 | 70 | 20 | 40 | 30 | 70 | 40 | 90 | 70 | Plant response rating, Barnyardgrass (barnyardgrass [1]; [3]): 15; Plant response rating, Rice (rice; [3]): 0; Pigweed plant response rating (redroot pigweed; [5]): 100; Pigweed plant response rating (redroot pigweed; [6]): 70; Plant response rating, Pigweed (redroot pigweed; Preemergence, 500 g ai/ha): 100; Plant response rating, Barnyardgrass (barnyardgrass [2]; Postemergence, 125 g ai/ha): 30; Barnyardgrass plant response rating (barnyardgrass [2]; [5]): 50; Barnyardgrass plant response rating (barnyardgrass [2]; [6]): 60; Plant response rating, Barnyardgrass (barnyardgrass [2]; Preemergence, 500 g ai/ha): 100; Plant response rating, Corn (corn; Postemergence, 125 g ai/ha): 0; Corn plant response rating (corn; [5]): 60; Corn plant response rating (corn; [6]): 0; Plant response rating, Corn (corn; Preemergence, 500 g ai/ha): 0; Plant response rating, Velvetleaf (velvetleaf; Postemergence, 125 g ai/ha): 30; Velvetleaf plant response rating (velvetleaf; [5]): 70; Velvetleaf plant response rating (velvetleaf; [6]): 50; Plant response rating, Velvetleaf (velvetleaf; Preemergence, 500 g ai/ha): 70; Plant response rating, Ducksalad (duck salad; [3]): 40; Plant response rating, Ducksalad (duck salad; [4]): 95
Cn1nc(C(F)(F)F)c(C[S+]([O-])c2cc(Cl)cc[n+]2[O-])c1OCC(F)(F)F (stereo not drawn) [Compound 68] | 20 | 80 | 100 | 70 | 90 | 70 | 100 | 50 | 90 | 40 | 100 | 50 | 60 | 30 | 70 | 10 | 70 | 30 | 80 | 40 | Plant response rating, Barnyardgrass (barnyardgrass [1]; [7]): 0; Plant response rating, Rice (rice; [7]): 0; Plant response rating, Sedge, Umbrella (umbrella sedge; [7]): 100; Pigweed plant response rating (redroot pigweed; [5]): 80; Pigweed plant response rating (redroot pigweed; [6]): 40; Plant response rating, Pigweed (redroot pigweed; Preemergence, 500 g ai/ha): 100; Plant response rating, Barnyardgrass (barnyardgrass [2]; Postemergence, 125 g ai/ha): 50; Barnyardgrass plant response rating (barnyardgrass [2]; [5]): 80; Barnyardgrass plant response rating (barnyardgrass [2]; [6]): 30; Plant response rating, Barnyardgrass (barnyardgrass [2]; Preemergence, 500 g ai/ha): 100; Plant response rating, Corn (corn; Postemergence, 125 g ai/ha): 30; Corn plant response rating (corn; [5]): 70; Corn plant response rating (corn; [6]): 0; Plant response rating, Corn (corn; Preemergence, 500 g ai/ha): 70; Plant response rating, Velvetleaf (velvetleaf; Postemergence, 125 g ai/ha): 50; Velvetleaf plant response rating (velvetleaf; [5]): 60; Velvetleaf plant response rating (velvetleaf; [6]): 0; Plant response rating, Velvetleaf (velvetleaf; Preemergence, 500 g ai/ha): 60; Plant response rating, Ducksalad (duck salad; [7]): 85; Plant response rating, Ducksalad (duck salad; [4]): 90
Cc1cc(S(=O)(=O)Cc2c(C(F)(F)F)nn(C)c2OCC(F)(F)F)[n+]([O-])cc1Cl [Compound 71] | 20 | 60 | 30 | 40 | 80 | 90 | 100 | 30 | 70 | 50 | 100 | 30 | 50 | 0 | 40 | 0 | 30 | 0 | 10 | 50 | Plant response rating, Barnyardgrass (barnyardgrass [1]; [7]): 20; Plant response rating, Rice (rice; [7]): 30; Plant response rating, Sedge, Umbrella (umbrella sedge; [7]): 0; Pigweed plant response rating (redroot pigweed; [5]): 70; Pigweed plant response rating (redroot pigweed; [6]): 70; Plant response rating, Pigweed (redroot pigweed; Preemergence, 500 g ai/ha): 100; Plant response rating, Barnyardgrass (barnyardgrass [2]; Postemergence, 125 g ai/ha): 40; Barnyardgrass plant response rating (barnyardgrass [2]; [5]): 80; Barnyardgrass plant response rating (barnyardgrass [2]; [6]): 40; Plant response rating, Barnyardgrass (barnyardgrass [2]; Preemergence, 500 g ai/ha): 90; Plant response rating, Corn (corn; Postemergence, 125 g ai/ha): 0; Corn plant response rating (corn; [5]): 30; Corn plant response rating (corn; [6]): 20; Plant response rating, Corn (corn; Preemergence, 500 g ai/ha): 20; Plant response rating, Velvetleaf (velvetleaf; Postemergence, 125 g ai/ha): 20; Velvetleaf plant response rating (velvetleaf; [5]): 50; Velvetleaf plant response rating (velvetleaf; [6]): 0; Plant response rating, Velvetleaf (velvetleaf; Preemergence, 500 g ai/ha): 30; Plant response rating, Ducksalad (duck salad; [7]): 0; Plant response rating, Ducksalad (duck salad; [4]): 70
Cn1nc(C(F)(F)F)c(CS(=O)(=O)c2cc(C(C)(C)C)cc[n+]2[O-])c1OCC(F)(F)F [Compound 72] | 0 | 0 | 70 | 10 | 60 | 100 | 100 | 0 | 60 | 80 | 100 | 0 | 60 | 30 | 70 | 0 | 40 | 0 | 60 | 20 | Plant response rating, Barnyardgrass (barnyardgrass [1]; [7]): 0; Plant response rating, Rice (rice; [7]): 0; Plant response rating, Sedge, Umbrella (umbrella sedge; [7]): 0; Pigweed plant response rating (redroot pigweed; [5]): 60; Pigweed plant response rating (redroot pigweed; [6]): 60; Plant response rating, Pigweed (redroot pigweed; Preemergence, 500 g ai/ha): 90; Plant response rating, Barnyardgrass (barnyardgrass [2]; Postemergence, 125 g ai/ha): 0; Barnyardgrass plant response rating (barnyardgrass [2]; [5]): 60; Barnyardgrass plant response rating (barnyardgrass [2]; [6]): 40; Plant response rating, Barnyardgrass (barnyardgrass [2]; Preemergence, 500 g ai/ha): 100; Plant response rating, Corn (corn; Postemergence, 125 g ai/ha): 0; Corn plant response rating (corn; [5]): 0; Corn plant response rating (corn; [6]): 0; Plant response rating, Corn (corn; Preemergence, 500 g ai/ha): 50; Plant response rating, Velvetleaf (velvetleaf; Postemergence, 125 g ai/ha): 0; Velvetleaf plant response rating (velvetleaf; [5]): 40; Velvetleaf plant response rating (velvetleaf; [6]): 0; Plant response rating, Velvetleaf (velvetleaf; Preemergence, 500 g ai/ha): 90; Plant response rating, Ducksalad (duck salad; [7]): 0; Plant response rating, Ducksalad (duck salad; [4]): 75
